In publication PMC6212767 (2018):

Columns and labels:
[1] = test system: poly[d(G-C)2] (DNA, polymer) GC; assay: UV melting, 260 nm; conditions: per base
[2] = test system: poly[d(A-T)2] (DNA, polymer) AT; assay: ethidium bromide displacement fluorescence; conditions: apparent; per base pair; ethidium displaced; slightly lower than with poly[d(G-C)2]
[3] = test system: poly[d(G-C)2] (DNA, polymer) GC; assay: ethidium bromide displacement fluorescence; conditions: apparent, per base pair, ethidium displaced, buffer as in cited literature
[4] = test system: poly[d(G-C)2] (DNA, polymer) GC; assay: circular dichroism; conditions: 25 mM NaCl; 10 mM phosphate, pH 7.0; ~100 μM bp DNA; intercalation
[5] = test system: poly[d(A-T)2] (DNA, polymer) AT; assay: circular dichroism; conditions: 25 mM NaCl; 10 mM phosphate, pH 7.0; ~100 μM bp DNA; minor groove

[Cl-].[Cl-].[Cl-].[Cl-].[Cu+2].[Cu+2].c1ccc(CN(Cc2ccc3ccc(CN(Cc4ccccn4)Cc4ccccn4)cc3c2)Cc2ccccn2)nc1
ΔTm ([1]; r = 0.1, biphasic, first derivative transition d1, second transition d2 -1.5 ± 1.2 °C): -18.5 ± 1.2 °C
binding [2]: yes
Kapp [3]: ~ 1 × 10^7 M(bp)^−1

CC[n+]1c(-c2ccccc2)c2cc(N)ccc2c2ccc(N)cc21
binding [4]: yes

Cn1cc(NC(=O)c2cc(NC(=O)CN=C(N)N)cn2C)cc1C(=O)NCCC(=N)N
binding [5]: yes

CN(C)c1ccc(C(=C2C=CC(=[N+](C)C)C=C2)c2ccc([N+](C)(C)C)cc2)cc1
ΔTm ([1]; compound ratio for methyl green not stated in material): +5.2 °C
